The text below walks through data of US10766903B2 (ALMAC DISCOVERY LIMITED, priority 2016, dated 2020).

Structures can show the parent of a compound that is named as a salt.

The target of the first test is USP7 (Homo sapiens (Human), UniProt Q93009). Description: USP7 fluorescence polarisation (FP) biochemical assay, ubiquitin-Lys-TAMRA substrate. The conditions noted are these: Table 4, biochemical assay; average of at least duplicate experiments; read-out: USP7 IC50. In outline: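 Full-length His6-USP7 (2.5 nM) incubated ± inhibitor (8-point dilutions, 200 to 0.1 μM before addition) in 50 mM HEPES pH 7.2, 150 mM NaCl, 0.5 mM EDTA, 5 mM DTT, 0.05% BSA, 0.05% CHAPS. Ubiquitin-Lys-TAMRA cleavage followed by FP (ex 530/em 575 nm) every 15 min for 1.5 h; normalised to no-compound control.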
USP7, sequence (Q93009 whole entry): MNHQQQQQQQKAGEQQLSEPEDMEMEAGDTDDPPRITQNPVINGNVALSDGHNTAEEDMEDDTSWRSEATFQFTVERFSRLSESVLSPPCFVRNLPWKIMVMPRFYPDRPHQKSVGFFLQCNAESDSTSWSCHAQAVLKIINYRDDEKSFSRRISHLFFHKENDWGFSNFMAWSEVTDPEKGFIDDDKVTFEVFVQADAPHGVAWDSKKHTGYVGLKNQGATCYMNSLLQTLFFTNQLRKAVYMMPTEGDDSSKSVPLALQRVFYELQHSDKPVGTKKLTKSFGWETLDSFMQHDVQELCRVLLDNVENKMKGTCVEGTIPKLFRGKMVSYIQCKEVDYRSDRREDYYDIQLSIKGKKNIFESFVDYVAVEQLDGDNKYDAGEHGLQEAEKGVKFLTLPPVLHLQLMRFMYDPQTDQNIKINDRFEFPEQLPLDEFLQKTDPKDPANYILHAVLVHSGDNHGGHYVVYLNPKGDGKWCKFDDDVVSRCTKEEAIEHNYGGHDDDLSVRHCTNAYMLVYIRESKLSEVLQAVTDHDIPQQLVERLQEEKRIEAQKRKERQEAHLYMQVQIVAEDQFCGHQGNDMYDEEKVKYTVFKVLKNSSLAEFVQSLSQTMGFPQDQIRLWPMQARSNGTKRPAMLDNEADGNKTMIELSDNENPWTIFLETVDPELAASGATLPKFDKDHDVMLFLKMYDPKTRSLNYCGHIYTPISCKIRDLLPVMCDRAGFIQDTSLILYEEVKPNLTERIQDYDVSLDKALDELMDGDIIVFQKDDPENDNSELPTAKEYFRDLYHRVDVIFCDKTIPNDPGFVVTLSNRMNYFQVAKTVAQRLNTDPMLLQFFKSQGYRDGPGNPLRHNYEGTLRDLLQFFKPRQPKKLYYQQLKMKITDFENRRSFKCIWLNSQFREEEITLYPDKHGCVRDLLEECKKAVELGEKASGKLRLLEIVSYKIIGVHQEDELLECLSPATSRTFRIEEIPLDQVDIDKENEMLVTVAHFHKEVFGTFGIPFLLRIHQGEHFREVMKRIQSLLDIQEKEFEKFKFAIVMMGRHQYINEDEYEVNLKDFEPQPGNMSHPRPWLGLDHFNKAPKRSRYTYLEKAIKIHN
What is called IC50 is the point on the concentration scale where inhibition reaches its midpoint. Turning to `Cn1nc2c(=O)n(CC3(O)CCN(C(=O)C[C@H](c4ccc(F)cc4)C(F)(F)F)CC3)cnc2c1-c1ccc(CN)cc1` [Example 85, (R)-3-(4-(Aminomethyl)phenyl)-6-((4-hydroxy-1-(4,4,4-trifluoro-3-(4-fluorophenyl)butanoyl)piperidin-4-yl)methyl)-2-methyl-2H-pyrazolo[4,3-d]pyrimidin-7(6H)-one], the IC50 was under 250 nM.

With `O=C(c1cnc(C2CC2)o1)N1CCC(O)(Cn2cnc3c(cc(Cl)n3-c3ccc(Cl)cc3)c2=O)CC1` [Example 228, 6-Chloro-7-(4-chlorophenyl)-3-((1-(2-cyclopropyloxazole-5-carbonyl)-4-hydroxypiperidin-4-yl)methyl)-3H-pyrrolo[2,3-d]pyrimidin-4(7H)-one], the IC50 was under 250 nM.

Turning to `CC1(C(=O)N2CCC(O)(Cn3cnc4c(cc(Cl)n4-c4csc(CO)c4)c3=O)CC2)CC1` [Example 201, 6-Chloro-3-((4-hydroxy-1-(1-methylcyclopropanecarbonyl)piperidin-4-yl)methyl)-7-(5-(hydroxymethyl)thiophen-3-yl)-3H-pyrrolo[2,3-d]pyrimidin-4(7H)-one], the half-maximal inhibitory concentration (IC50) is under 250 nM.

In the case of `CC(=O)N1CCC(O)(Cn2cnc3c(-c4ccccc4)n(C)nc3c2=O)CC1` [Example 131, 6-((1-Acetyl-4-hydroxypiperidin-4-yl)methyl)-2-methyl-3-phenyl-2H-pyrazolo[4,3-d]pyrimidin-7(6H)-one], the IC50 fell in the range of 1000 to 200000 nM.

Consider `Cn1cc(-c2cc(-n3c(Cl)cc4c(=O)n(CC5(O)CCN(C(=O)C6(C)CC6)CC5)cnc43)ccc2F)cn1` [Example 233, 6-Chloro-7-(4-fluoro-3-(1-methyl-1H-pyrazol-4-yl)phenyl)-3-((4-hydroxy-1-(1-methylcyclopropanecarbonyl)piperidin-4-yl)methyl)-3H-pyrrolo[2,3-d]pyrimidin-4(7H)-one], for which the IC50 was under 250 nM.

For the compound `C[C@H](CC(=O)N1CCC(O)(Cn2cnc(N3CCN(Cc4cccnc4)CC3)cc2=O)CC1)c1ccccc1` [Example 158, (R)-3-((4-hydroxy-1-(3-phenylbutanoyl)piperidin-4-yl)methyl)-6-(4-(pyridin-3-ylmethyl)piperazin-1-yl)pyrimidin-4(3H)-one], the IC50 is 1000 to 200000 nM.

Take `Cn1nccc1-c1cccc(-n2c(Cl)cc3c(=O)n(CC4(O)CCN(C(=O)c5cnc(C6CC6)o5)CC4)cnc32)c1` [Example 210, 6-Chloro-3-((1-(2-cyclopropyloxazole-5-carbonyl)-4-hydroxypiperidin-4-yl)methyl)-7-(3-(1-methyl-1H-pyrazol-5-yl)phenyl)-3H-pyrrolo[2,3-d]pyrimidin-4(7H)-one]: the IC50 lay within 250 to 999 nM.

Consider `C[C@H](CC(=O)N1CCC(O)(Cn2cnc(N3CCC(C)(O)C3)cc2=O)CC1)c1ccccc1` (stereo partly drawn) [Example 150, 3-((4-hydroxy-1-((R)-3-phenylbutanoyl)piperidin-4-yl)methyl)-6-(3-hydroxy-3-methylpyrrolidin-1-yl)pyrimidin-4(3H)-one], for which the IC50 was 1000 to 200000 nM.

With `C[C@H](CC(=O)N1CCC(O)(Cn2cnc(N3CCC[C@@H]3CO)cc2=O)CC1)c1ccccc1` [Example 140, 3-((4-hydroxy-1-((R)-3-phenylbutanoyl)piperidin-4-yl)methyl)-6-((R)-2-(hydroxymethyl)pyrrolidin-1-yl)pyrimidin-4(3H)-one], the IC50 was in the range of 1000 to 200000 nM.

In the case of `Cc1nc2c(=O)n(CC3(O)CCN(C(=O)C[C@@H](C)c4ccccc4)CC3)cnc2n1-c1ccccc1` [Example 188, (R)-1-((4-Hydroxy-1-(3-phenylbutanoyl)piperidin-4-yl)methyl)-8-methyl-9-phenyl-1H-purin-6(9H)-one], the IC50 is under 250 nM.

Regarding `C[C@H](CC(=O)N1CCC(O)(Cn2cnc(N3CCOC(C)(C(=O)N(C)C)C3)cc2=O)CC1)c1ccccc1` (stereo partly drawn) [Example 148, 4-(1-((4-hydroxy-1-((R)-3-phenylbutanoyl)piperidin-4-yl)methyl)-6-oxo-1,6-dihydropyrimidin-4-yl)-N,N,2-trimethylmorpholine-2-carboxamide], the IC50 fell in the range of 1000 to 200000 nM.

For the compound `C[C@H](CC(=O)N1CCC(O)(Cn2cnc3c(nc(-c4ccccc4)n3C)c2=O)CC1)c1ccccc1` [Example 16, (R)-1-((4-Hydroxy-1-(3-phenylbutanoyl)piperidin-4-yl)methyl)-9-methyl-8-phenyl-1H-purin-6(9H)-one], the IC50 was in the range of 1000 to 200000 nM.

`COc1ccc(-n2c(Cl)cc3c(=O)n(CC4(O)CCN(C(=O)c5cnc(C6CC6)o5)CC4)cnc32)cc1OC` [Example 240, 6-Chloro-3-((1-(2-cyclopropyloxazole-5-carbonyl)-4-hydroxypiperidin-4-yl)methyl)-7-(3,4-dimethoxyphenyl)-3,7-dihydro-4H-pyrrolo[2,3-d]pyrimidin-4-one]: the IC50 was under 250 nM.

On to `Cn1nc2c(=O)n(CC3(O)CCN(C(=O)C[C@H](c4ccccc4)C(F)(F)F)CC3)cnc2c1-c1ccc([C@H](N)C(F)F)cc1` [Example 122, 3-(4-((S)-1-Amino-2,2-difluoroethyl)phenyl)-6-((4-hydroxy-1-((R)-4,4,4-trifluoro-3-phenylbutanoyl)piperidin-4-yl)methyl)-2-methyl-2H-pyrazolo[4,3-d]pyrimidin-7(6H)-one], for which the IC50 is under 250 nM.

As for `C[C@H](CC(=O)N1CCC(O)(Cn2cnc(NCc3ccc4c(c3)OCCO4)cc2=O)CC1)c1ccccc1` [Example 162, (R)-6-(((2,3-dihydrobenzo[b][1,4]dioxin-6-yl)methyl)amino)-3-((4-hydroxy-1-(3-phenylbutanoyl)piperidin-4-yl)methyl)pyrimidin-4(3H)-one], the IC50 is 1000 to 200000 nM.

Consider `Cn1nc2c(=O)n(CC3(O)CCN(C(=O)C4(C)CC4)CC3)cnc2c1-c1ccc(C(=O)O)cc1` [Example 245, 4-(6-((4-Hydroxy-1-(1-methylcyclopropane-1-carbonyl)piperidin-4-yl)methyl)-2-methyl-7-oxo-6,7-dihydro-2H-pyrazolo[4,3-d]pyrimidin-3-yl)benzoic Acid], for which the IC50 was in the range of 1000 to 200000 nM.

For `C[C@H](CC(=O)N1CCC(O)(Cn2cnc(NC[C@H]3CCCN3C)cc2=O)CC1)c1ccccc1` [Example 65, 3-((4-Hydroxy-1-((R)-3-phenylbutanoyl)piperidin-4-yl)methyl)-6-((((R)-1-methylpyrrolidin-2-yl)methyl)amino)pyrimidin-4(3H)-one, Formic Acid], the half-maximal inhibitory concentration (IC50) was 250 to 999 nM.

For `Cn1nc2c(=O)n(CC3(O)CCN(C(=O)C[C@H](c4cc(F)cc(F)c4)C(F)(F)F)CC3)cnc2c1-c1ccc(CN)cc1` [Example 84, (R)-3-(4-(Aminomethyl)phenyl)-6-((1-(3-(3,5-difluorophenyl)-4,4,4-trifluorobutanoyl)-4-hydroxypiperidin-4-yl)methyl)-2-methyl-2H-pyrazolo[4,3-d]pyrimidin-7(6H)-one], the IC50 is 1000 to 200000 nM.

Consider `CC1(C(=O)N2CCC(O)(Cn3cnc4c(cc(C#N)n4-c4ccccc4)c3=O)CC2)CC1` [Example 234, 3-((4-Hydroxy-1-(1-methylcyclopropanecarbonyl)piperidin-4-yl)methyl)-4-oxo-7-phenyl-4,7-dihydro-3H-pyrrolo[2,3-d]pyrimidine-6-carbonitrile], for which the IC50 was under 250 nM.

`[2H]C1([2H])Oc2ccc(-n3c(Cl)cc4c(=O)n(CC5(O)CCN(C(=O)c6cnc(C7CC7)o6)CC5)cnc43)cc2O1` [Example 236, 7-(Benzo[d][1,3]dioxol-5-yl-2,2-d2)-6-chloro-3-((1-(2-cyclopropyloxazole-5-carbonyl)-4-hydroxypiperidin-4-yl)methyl)-3,7-dihydro-4H-pyrrolo[2,3-d]pyrimidin-4-one]: the IC50 is under 250 nM.

Consider `C[C@H](CC(=O)N1CCC(O)(Cn2cnc(N[C@@H]3CCCC[C@@H]3N)cc2=O)CC1)c1ccccc1` (racemic) [Example 64, 6-(((±-cis-1,2)-2-Aminocyclohexyl)amino)-3-((4-hydroxy-1-((R)-3-phenylbutanoyl)piperidin-4-yl)methyl)pyrimidin-4(3H)-one, Formic Acid], for which the IC50 lay in the range of 250 to 999 nM.

As to `Cc1nc2c(=O)n(CC3(O)CCN(C(=O)C[C@@H](C)c4ccccc4)CC3)cnc2n1-c1ccc(CN)cc1` [Example 72, (R)-9-(4-(Aminomethyl)phenyl)-1-((4-hydroxy-1-(3-phenylbutanoyl)piperidin-4-yl)methyl)-8-methyl-1H-purin-6(9H)-one], the IC50 was under 250 nM.

The test is the same for the next values; noted with them: USP7 IC50, Table 4, biochemical assay; average of at least duplicate experiments.
With `C[C@H](CC(=O)N1CCC(O)(Cn2cnc(N3CC(N)C3)cc2=O)CC1)c1ccccc1` [Example 13, (R)-6-(3-Aminoazetidin-1-yl)-3-((4-hydroxy-1-(3-phenylbutanoyl)piperidin-4-yl)methyl)pyrimidin-4(3H)-one], the IC50 fell in the range of 250 to 999 nM.

On to `C[C@H](CC(=O)N1CCC(O)(Cn2cnc(-c3cnn(CCN(C)C)c3)cc2=O)CC1)c1ccccc1` [Example 54, (R)-6-(1-(2-(Dimethylamino)ethyl)-1H-pyrazol-4-yl)-3-((4-hydroxy-1-(3-phenylbutanoyl)piperidin-4-yl)methyl)pyrimidin-4(3H)-one, Formic Acid], for which the IC50 fell in the range of 250 to 999 nM.

With `C[C@H](CC(=O)N1CCC(O)(Cn2cnc(N3CCC(N)CC3)cc2=O)CC1)c1ccccc1` [Example 48, (R)-6-(4-Aminopiperidin-1-yl)-3-((4-hydroxy-1-(3-phenylbutanoyl)piperidin-4-yl)methyl)pyrimidin-4(3H)-one hydrochloride], the IC50 was 250 to 999 nM.

`C[C@H](CC(=O)N1CCC(O)(Cn2cnc(NCCN3Cc4cccc(F)c4C3)cc2=O)CC1)c1ccccc1` [Example 86, (R)-6-((2-(4-Fluoroisoindolin-2-yl)ethyl)amino)-3-((4-hydroxy-1-(3-phenylbutanoyl)piperidin-4-yl)methyl)pyrimidin-4(3H)-one, Formic Acid]: the IC50 was 250 to 999 nM.

As for `Cn1nc2c(=O)n(CC3(O)CCN(C(=O)C[C@H](c4ccccc4)C(F)(F)F)CC3)cnc2c1C1CCCCC1` [Example 136, (R)-3-Cyclohexyl-6-((4-hydroxy-1-(4,4,4-trifluoro-3-phenylbutanoyl)piperidin-4-yl)methyl)-2-methyl-2H-pyrazolo[4,3-d]pyrimidin-7(6H)-one], the IC50 was in the range of 250 to 999 nM.
